Values of other authors, collected in patent publication US20230029485A1 (priority 2021, published 2023).

Experiments:
Conditions in all cases: in vivo
[1] = system: metastatic colorectal cancer
SARS-CoV-2 [2] = system: SARS-CoV-2
SARS-CoV-2 [3] = system: SARS-CoV-2; remark: listed apart in the source

O=c1[nH]cc(F)c(=O)[nH]1 [5-fluorouracil]
objective response rate [1]: around 20%

CCN(CCO)CCCC(C)Nc1ccnc2cc(Cl)ccc12 (stereo not shown) [HCQ, hydroxychloroquine]
developed QT prolongation (SARS-CoV-2 [2]): nine
good clinical outcome and a virological cure (SARS-CoV-2 [2]): 91.7%

CCC(CC)COC(=O)[C@H](C)N[P@](=O)(OC[C@H]1O[C@@](C#N)(c2ccc3c(N)ncnn23)[C@H](O)[C@@H]1O)Oc1ccccc1 [RDV, Remdesivir]
adverse events, share of patients (SARS-CoV-2 [3]): 60.3%
